Assay results from patent US20100303727A1, “OPTICAL IMAGING AGENTS” (priority 2007, published 2010).
Read-outs that look alike come from different tables or passages of the source. Bridge positions count the residues as written; N and C are the ends. Peptide text beside a SMILES is read from it. * marks the point of attachment. X3 = CC[N+]1=C(/C=C/C=C/C=C2/N(CCCCCC(=O)*)c3ccc(S(=O)(=O)O)cc3C2(C)C)C(C)(C)c2cc(S(=O)(=O)[O-])ccc21; X1 = C[N+]1=C(/C=C/C=C/C=C2/N(CCCCCC(=O)*)c3ccccc3C2(C)C)C(C)(C)c2cc(S(=O)(=O)[O-])ccc21; X2 = NC(=O)COCC(=O)NCCOCCOCCOCCN*

Assays:
αVβ3 receptor = target: T1, αVβ3 receptor (Homo sapiens, UniProt P05106+P06756); assay: Competition assay using 125I-echistatin on EA-Hy926 membranes; assay type: binding; details: for Ki: competition with 125I-Echistatin, EA-Hy926 membranes
T1 construct: endogenous in cells; host or cells: EA-Hy926 human endothelial cell line (membrane preparation)
Experimental: A classical competition assay using ^125I-echistatin was performed in order to check the affinity (Ki) of the RGD-Cy^D conjugates (Compounds 1 to 8) towards membranes expressing. the αVβ3 receptor. Ki was determined in receptor competition studies with membranes prepared from human endothelial cells. Membranes from the human endothelial adenocarcinoma cell line EA-Hy926 that express several integrins including αVβ3 were prepared and used as a receptor source. Competitive binding of ^125I-Echistatin, a known […] for several integrins including αVβ3, was carried out with varying concentrations of cold compounds.

collagen = assay type: binding; details: 1 h 37° C., Ex646/Em678 nm
Experimental: Commercially available collagen-covered 96-well plates were used (BD Biocoat, Art. code BDAA 356649, Becton, Dickinson Biosciences, Two Oak Park, Bedford, Mass. 01730). Triplicate wells were made of each test Compound at 30 nM, 100 nM or 300 nM (1000 nM included in some cases), and the plate was incubated in the plate reader for one hour at 37° C. with shaking every other minute*. The volume in each well was 200 μl. At the end of the incubation, 150 μl supernatant was transferred to an untreated 96-well plate, and the fluorescence was read with excitation at 646 nm and emission at 678 nm wavelengths.
For calculation of the degree of binding, the fluorescence from the supernatants was compared to the fluorescence from 150 μl aliquots with the same initial concentrations. In all cases, median values from 3 wells were used.

[1] = assay type: in vitro ADME, mouse
Experimental: Mouse plasma (non-sterile) was purchased from Rockland, Pa., USA. This plasma is stabilized with heparin, sodium. The substance was dissolved in PBS and plasma, respectively, at concentrations 0.1/0.2 mg/mL. Both blank samples (solvent without peptide) and peptide dissolved in plasma/PBS were incubated at 37° C. for about 4 hours. After incubation the proteins were removed by ultrafiltration using non-sterile Ultrafree®-MC centrifuge tubes with filter insert from Millipore Co. (Amicon). The cut-off of the filters was 30,000 NMWL Prior to centrifugation the plasma samples were diluted 1:1 with water. The samples were analysed by HPLC using visible detection.
The substance was dissolved in PBS, concentration 0.1 mg/mL. The fluorescence intensity of the ultracentrifuged samples was measured using Fluoroskan Ascent® FL equipped with plate reader (Thermo Labsystems Oy, Finland). Excitation wavelength was at 646 nm and emission wavelength at 678 nm and measurements were performed at two different concentrations of the substance, 6.5 μg/mL and 23 μg/mL plasma.
The Ultimate 3000 micro liquid chromatograph equipped with UV-Vis detector was applied in this study. The solution has an intense bluish colour and absorbs well at 650 nm.
The chromatography was performed on an X-Terra RP18 column 2.1×150 mm, 3.5 μm particles from Waters using a gradient elution of acetonitrile (ACN) and phosphate buffer (20 mM, pH 7.1); 650 nm detection; flow rate 0.1 mL/min; injection volume: 5 μL. Gradient: initiated at 22% ACN in buffer, increasing linearly to 50% ACN over 12 min; rapid linear increase of gradient to 90% ACN for 2 min followed; then equilibration to the starting mixture. Total analysis time was 20 min, with a retention time for the main peak of ˜9 min. Degradation/impurities were reported as changes in purity of the main peak.

[2] = human, plasma
HT-29 tumour = assay: In vivo optical imaging of HT-29 tumour-bearing mice; details: mean tumour region intensity divided by mean muscle region intensity, iv injection, HT-29 tumours s.c.
Experimental: Female BALB c/A nude (Bom) mice were used in the study. The use of the animals was approved by the local ethics committee. As the animals were immunocompromised, they were housed in individually ventilated cages (IVC, Scanbur BK) supplied with HEPA filtered air. The animals had ad libitum access to “Rat and Mouse nr. 3 Breeding” diet (Scanbur BK) and tap water acidified by addition of HCl to a molar concentration of 1 mM (pH 3.0). In order to protect the animals during handling and all procedures before the imaging procedure, they were handled under conditions of laminar HEPA filtered air.
The animals were allowed an acclimatisation period of at least 5 days before being injected s.c. with HT-29 tumour cell suspensions at two sites (shoulder and left, lower flank) with a nominal dose of 2.5-3×10^6 cells per injection in a volume of 100 μl. The s.c. injections were performed under light gas anaesthesia. […]
Image analysis was performed with custom written MATLAB software. […] The mean signal of the pixel values inside each region was calculated. The mean signal and pixel standard deviation was calculated.
Based on the in-vitro data from example 7-10, in-vivo results from compounds 1, 2, 4 and 6 are presented. Tumour enhancement is quantified by a target to background ratio (TBR) defined as the ratio of the mean tumour region intensity divided by the mean muscle region intensity.

Compound	Ki (αVβ3 receptor) [nM]	Collagen binding (% bound) (collagen; initial conc. 30 nM) [%]	Collagen binding (% bound) (collagen; initial conc. 100 nM) [%]	Collagen binding (% bound) (collagen; initial conc. 300 nM) [%]	Collagen binding (% bound) (collagen; initial conc. 1000 nM) [%]	% main peak area (after 4 h incubation in mouse plasma) [1] [%]	PPB (ranking in words) [2]	Ki (in words) (αVβ3 receptor; summary of Example 10)	Target to background ratio (TBR) (HT-29 tumour)
CC[N+]1=C(/C=C/C=C/C=C2/N(CCCCCC(=O)NCCCC[C@@H]3NC(=O)CSC[C@@H](C(=O)NCCOCCOCCOCCNC(=O)COCC(N)=O)NC(=O)[C@H](Cc4ccccc4)NC(=O)[C@@H]4CSSC[C@H](NC3=O)C(=O)N[C@@H](CCCNC(=N)N)C(=O)NCC(=O)N[C@@H](CC(=O)O)C(=O)N4)c3ccc(S(=O)(=O)O)cc3C2(C)C)C(C)(C)c2cc(S(=O)(=O)[O-])ccc21 [Compound 1, RGD-[Cy5(2)] Dye Conjugate] ({CH2CO}-K(X3)CRGDCFC-X2; disulfide 2-6; thioether N-8)	1.9								
CC1(CCCCS(=O)(=O)O)C(/C=C/C=C/C=C2\N(CCCCCC(=O)NCCCC[C@@H]3NC(=O)CSC[C@@H](C(=O)NCCOCCOCCOCCNC(=O)COCC(N)=O)NC(=O)[C@H](Cc4ccccc4)NC(=O)[C@@H]4CSSC[C@H](NC3=O)C(=O)N[C@@H](CCCNC(=N)N)C(=O)NCC(=O)N[C@@H](CC(=O)O)C(=O)N4)c3ccc(S(=O)(=O)O)cc3C2(C)CCCCS(=O)(=O)O)=[N+](Cc2ccccc2)c2ccc(S(=O)(=O)[O-])cc21 (stereo partly drawn) [Compound 5]		83.6	96.1	50.9	30.4	46			
CC1(C)C(/C=C/C=C/C=C2/N(CCCS(=O)(=O)O)c3ccc(S(=O)(=O)O)cc3C2(C)CCCCCC(=O)NCCCC[C@@H]2NC(=O)CSC[C@@H](C(=O)NCCOCCOCCOCCNC(=O)COCC(N)=O)NC(=O)[C@H](Cc3ccccc3)NC(=O)[C@@H]3CSSC[C@H](NC2=O)C(=O)N[C@@H](CCCNC(=N)N)C(=O)NCC(=O)N[C@@H](CC(=O)O)C(=O)N3)=[N+](CCCS(=O)(=O)O)c2ccc(S(=O)(=O)O)cc21 (stereo partly drawn) [Compound 6, RGD-Alexa 647 Dye Conjugate]	1.6					100	lowest		
CCN1\C(=C/C=C/C=C/C2=[N+](CCCCCC(=O)NCCOCCOCCOCCNC(=O)COCC(=O)NCCCC[C@@H]3NC(=O)CSC[C@@H](C(=O)NCCOCCOCCOCCNC(=O)COCC(N)=O)NC(=O)[C@H](Cc4ccccc4)NC(=O)[C@@H]4CSSC[C@H](NC3=O)C(=O)N[C@@H](CCCNC(=N)N)C(=O)NCC(=O)N[C@@H](CC(=O)O)C(=O)N4)c3ccc(S(=O)(=O)[O-])cc3C2(C)C)C(C)(C)c2cc(S(=O)(=O)O)ccc21 [Compound 8]		92.1	85.9	56.7	32.7	93			
CC1(CCCCS(=O)(=O)[O-])C(/C=C/C=C/C=C2\N(CCCCS(=O)(=O)O)c3c(F)c(F)c(F)c(F)c3C2(C)CCCCS(=O)(=O)O)=[N+](CCCCCC(=O)NCCCC[C@@H]2NC(=O)CSC[C@@H](C(=O)NCCOCCOCCOCCNC(=O)COCC(N)=O)NC(=O)[C@H](Cc3ccccc3)NC(=O)[C@@H]3CSSC[C@H](NC2=O)C(=O)N[C@@H](CCCNC(=N)N)C(=O)NCC(=O)N[C@@H](CC(=O)O)C(=O)N3)c2c(F)c(F)c(F)c(F)c21 (stereo partly drawn) [Compound 7]	7.4					70	highest PPB	slightly higher Ki value	
CC1(CCCCS(=O)(=O)O)C(/C=C/C=C/C=C2/N(CCCCCC(=O)NCCCC[C@@H]3NC(=O)CSC[C@@H](C(=O)NCCOCCOCCOCCNC(=O)COCC(N)=O)NC(=O)[C@H](Cc4ccccc4)NC(=O)[C@@H]4CSSC[C@H](NC3=O)C(=O)N[C@@H](CCCNC(=N)N)C(=O)NCC(=O)N[C@@H](CC(=O)O)C(=O)N4)c3ccc(S(=O)(=O)O)cc3C2(C)C)=[N+](CCCCS(=O)(=O)O)c2ccc(S(=O)(=O)O)cc21 (stereo partly drawn) [Compound 4, RGD-Cy5** Dye Conjugate]	1.8					100	lowest		
C[N+]1=C(/C=C/C=C/C=C2/N(CCCCCC(=O)NCCCC[C@@H]3NC(=O)CSC[C@@H](C(=O)NCCOCCOCCOCCNC(=O)COCC(N)=O)NC(=O)[C@H](Cc4ccccc4)NC(=O)[C@@H]4CSSC[C@H](NC3=O)C(=O)N[C@@H](CCCNC(=N)N)C(=O)NCC(=O)N[C@@H](CC(=O)O)C(=O)N4)c3ccccc3C2(C)C)C(C)(C)c2cc(S(=O)(=O)[O-])ccc21 [Compound 3, RGD-Cy5(1)) Dye Conjugate] ({CH2CO}-K(X1)CRGDCFC-X2; disulfide 2-6; thioether N-8)	2.6						highest PPB		
CC[N+]1=C(/C=C/C=C/C=C2/N(CCCCCC(=O)NCCCC[C@@H]3NC(=O)CSC[C@@H](C(=O)NCCOCCOCCOCCNC(=O)COCC(N)=O)NC(=O)[C@H](CCCNC(=N)N)NC(=O)[C@@H]4CSSC[C@H](NC3=O)C(=O)NCC(=O)N[C@@H](CC(=O)O)C(=O)N[C@@H](Cc3ccccc3)C(=O)N4)c3ccc(S(=O)(=O)O)cc3C2(C)C)C(C)(C)c2cc(S(=O)(=O)[O-])ccc21 [Compound 2, neg-RGD-[Cy5(2)] Dye Conjugate] ({CH2CO}-K(X3)CGDFCRC-X2; disulfide 2-6; thioether N-8)		87	81.1	83					1.14
